Earlier results in patent US20230218693A1, “HEMP SPROUT PRODUCTS AND METHODS FOR PRODUCING SAME” (priority 2020, published 2023).
Like-named read-outs stand apart in the source and are kept apart here.

How the values were obtained:
[1] = result in words
[2] = result in words; remark: listed apart in the source
PGE2 = settings: result in words
[3] = test system: freshly isolated human blood cells; settings: for Effect on cell viability: human cells
COX-1 [4] = test system: COX-1
5-LO [5] = biological target: T1, 5-LO (Homo sapiens, UniProt P09917); parameters: endogenous in cells; host or cells: freshly isolated human neutrophils (PMNL); settings: PMNL, A23187 + AA
T1 sequence (P09917 1-674): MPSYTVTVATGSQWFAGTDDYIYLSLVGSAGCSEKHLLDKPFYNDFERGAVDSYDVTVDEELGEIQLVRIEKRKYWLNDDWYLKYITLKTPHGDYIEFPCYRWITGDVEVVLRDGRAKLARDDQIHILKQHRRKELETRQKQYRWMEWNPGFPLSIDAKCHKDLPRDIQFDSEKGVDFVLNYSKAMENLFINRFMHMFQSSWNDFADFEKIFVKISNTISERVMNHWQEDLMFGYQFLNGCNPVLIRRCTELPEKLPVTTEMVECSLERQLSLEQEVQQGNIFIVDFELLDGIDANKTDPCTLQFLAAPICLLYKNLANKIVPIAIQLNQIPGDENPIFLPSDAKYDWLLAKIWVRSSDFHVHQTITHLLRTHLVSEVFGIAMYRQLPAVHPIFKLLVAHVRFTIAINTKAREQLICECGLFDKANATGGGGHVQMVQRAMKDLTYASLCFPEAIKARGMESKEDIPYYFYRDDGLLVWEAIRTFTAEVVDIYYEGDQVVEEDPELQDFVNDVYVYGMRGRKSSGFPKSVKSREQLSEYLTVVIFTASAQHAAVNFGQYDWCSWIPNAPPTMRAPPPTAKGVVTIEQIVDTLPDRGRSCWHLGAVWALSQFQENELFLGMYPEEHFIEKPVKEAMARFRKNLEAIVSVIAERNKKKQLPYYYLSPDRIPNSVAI

cPLA2 = biological target: T2, cPLA2 (Homo sapiens, UniProt P47712); settings: cPLA2, cell-free
T2 sequence (P47712 1-749): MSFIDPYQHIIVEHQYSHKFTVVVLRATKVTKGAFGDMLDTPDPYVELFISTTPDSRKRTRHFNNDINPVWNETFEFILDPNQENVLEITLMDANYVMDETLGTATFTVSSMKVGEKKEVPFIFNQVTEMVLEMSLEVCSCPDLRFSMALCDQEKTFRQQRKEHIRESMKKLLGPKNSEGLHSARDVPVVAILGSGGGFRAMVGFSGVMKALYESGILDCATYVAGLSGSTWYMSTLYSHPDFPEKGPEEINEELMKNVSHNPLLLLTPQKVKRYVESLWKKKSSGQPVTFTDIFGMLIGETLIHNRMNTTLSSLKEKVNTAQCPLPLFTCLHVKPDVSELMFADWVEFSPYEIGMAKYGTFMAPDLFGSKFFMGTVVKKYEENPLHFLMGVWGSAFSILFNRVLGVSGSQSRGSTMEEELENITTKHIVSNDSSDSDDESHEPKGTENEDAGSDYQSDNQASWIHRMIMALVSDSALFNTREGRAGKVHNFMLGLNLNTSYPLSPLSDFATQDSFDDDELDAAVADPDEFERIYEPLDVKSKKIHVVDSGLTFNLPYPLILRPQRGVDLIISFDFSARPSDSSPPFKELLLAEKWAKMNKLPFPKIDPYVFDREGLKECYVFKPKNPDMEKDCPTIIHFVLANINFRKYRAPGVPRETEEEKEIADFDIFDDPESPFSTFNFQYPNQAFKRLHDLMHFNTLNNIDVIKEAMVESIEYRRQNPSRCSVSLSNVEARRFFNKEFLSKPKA

COX-2 [6] = biological target: T3, COX-2 (Homo sapiens, UniProt P35354); parameters: endogenous in cells; host or cells: freshly isolated human monocytes; settings: COX-2, monocytes
T3 sequence (P35354 18-604): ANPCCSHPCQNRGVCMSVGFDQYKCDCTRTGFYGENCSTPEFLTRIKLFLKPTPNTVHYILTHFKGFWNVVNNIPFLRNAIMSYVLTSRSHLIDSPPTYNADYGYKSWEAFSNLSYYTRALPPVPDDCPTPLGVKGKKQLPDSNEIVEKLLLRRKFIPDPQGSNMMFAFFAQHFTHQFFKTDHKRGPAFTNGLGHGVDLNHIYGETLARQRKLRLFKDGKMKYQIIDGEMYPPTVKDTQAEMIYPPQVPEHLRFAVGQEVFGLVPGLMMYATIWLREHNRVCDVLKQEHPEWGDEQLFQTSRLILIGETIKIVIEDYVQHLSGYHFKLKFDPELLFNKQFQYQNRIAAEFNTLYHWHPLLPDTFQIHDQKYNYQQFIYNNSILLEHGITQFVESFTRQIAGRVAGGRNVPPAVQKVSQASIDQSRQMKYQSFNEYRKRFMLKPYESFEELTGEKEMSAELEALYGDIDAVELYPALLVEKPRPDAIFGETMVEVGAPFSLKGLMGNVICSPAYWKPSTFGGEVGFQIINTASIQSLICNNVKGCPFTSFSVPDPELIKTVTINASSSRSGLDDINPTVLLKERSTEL

COX-2 [7] = biological target: T3, COX-2
5-LO [8] = biological target: T1, 5-LO; settings: 5-LO cell-free
5-LO [9] = biological target: T1, 5-LO; parameters: endogenous in cells; host or cells: freshly isolated human neutrophils (PMNL); settings: PMNL
mPGES-1 = biological target: T4, mPGES-1 (Homo sapiens, UniProt O14684)
T4 sequence (O14684 1-152): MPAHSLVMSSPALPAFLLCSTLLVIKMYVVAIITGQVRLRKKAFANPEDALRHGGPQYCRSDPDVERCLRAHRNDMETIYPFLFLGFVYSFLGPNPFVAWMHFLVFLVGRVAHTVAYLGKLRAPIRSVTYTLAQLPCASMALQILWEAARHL

COX-1 [10] = biological target: T5, COX-1 (Homo sapiens, UniProt P23219); settings: COX-1, platelets
T5 construct: endogenous in cells; host or cells: freshly isolated human blood cells (platelets, according to the assay name)
T5 sequence (P23219 24-599): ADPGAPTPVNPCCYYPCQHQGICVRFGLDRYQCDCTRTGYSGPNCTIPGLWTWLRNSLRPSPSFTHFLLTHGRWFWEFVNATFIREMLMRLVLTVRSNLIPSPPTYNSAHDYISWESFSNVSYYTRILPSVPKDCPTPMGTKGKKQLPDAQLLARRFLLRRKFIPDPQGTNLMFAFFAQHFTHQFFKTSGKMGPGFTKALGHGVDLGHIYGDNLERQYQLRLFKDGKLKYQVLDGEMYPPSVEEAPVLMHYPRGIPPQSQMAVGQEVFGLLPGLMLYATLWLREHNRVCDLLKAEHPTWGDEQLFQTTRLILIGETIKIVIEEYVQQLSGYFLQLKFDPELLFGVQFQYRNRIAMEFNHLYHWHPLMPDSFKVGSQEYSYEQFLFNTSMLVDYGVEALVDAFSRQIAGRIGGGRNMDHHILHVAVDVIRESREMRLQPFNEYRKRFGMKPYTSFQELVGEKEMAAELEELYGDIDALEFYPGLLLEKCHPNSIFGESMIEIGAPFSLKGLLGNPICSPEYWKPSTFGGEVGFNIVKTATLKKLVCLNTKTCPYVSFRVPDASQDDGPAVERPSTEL

[11] = test system: HepG2 human hepatic carcinoma cells; settings: dose-dependently up to 500 μM

O=C(/C=C/c1ccc(O)c(O)c1)NCCc1ccc(O)cc1 [caffeoyltyramine]
Antioxidant activity against DPPH radicals [1]: demonstrated antioxidant activity against DPPH radicals | Inhibition of human LDL oxidation [2]: prominent inhibition of human LDL oxidation

COc1cc(-c2cc(=O)c3c(O)c(C/C=C(\C)CCC=C(C)C)c(O)cc3o2)ccc1O [CFA, Cannflavin A]
Suppression of PGE2 (PGE2): suppressed PGE2 | Effect on cell viability [3]: no effect | Effect on cell viability ([3]; listed as cannflavin A): no deleterious effects on human cell viability | Cytotoxicity ([3]; result in words): no evidence of cytotoxicity | Effect in DPPH assay (antioxidant activity): No effect | Effect in DPPH assay (antioxidant activity) (listed as cannflavin A): did not demonstrate innate antioxidant activity | % inhibition at 10 μM (COX-1 [4]; COX-1, cell-free, 10 μM): 36 ± 2% | IC50 (COX-1 [4]; COX-1, cell-free, read-out: CFA(1) IC50): > 10000 nM | Inhibition of COX-1 (COX-1 [4]; result in words): did not significantly inhibit COX-1 | % inhibition at 10 μM (5-LO [5]; 10 μM): 91 ± 1% | IC50 (5-LO [5]; read-out: CFA(1) IC50): 1600 nM | % inhibition at 10 μM (cPLA2; 10 μM): 26 ± 8% | IC50 (cPLA2; read-out: CFA(1) IC50): > 10000 nM | % inhibition at 10 μM (COX-2 [6]; 10 μM): 56 ± 8% | IC50 (COX-2 [6]; read-out: CFA(1) IC50): 8800 nM | % inhibition at 10 μM (COX-2 [7]; COX-2, cell-free, 10 μM): 35 ± 12% | IC50 (COX-2 [7]; COX-2, cell-free, read-out: CFA(1) IC50): > 10000 nM | Inhibition of COX-2 (COX-2 [7]; result in words): did not significantly inhibit COX-2 | % inhibition at 10 μM (5-LO [8]; 10 μM): 88 ± 3% | IC50 (5-LO [8]; read-out: CFA(1) IC50): 900 nM | % inhibition at 10 μM (5-LO [9]; A23187, 10 μM): 98 ± 2% | IC50 (5-LO [9]; A23187, read-out: CFA(1) IC50): 2400 nM | % inhibition at 10 μM (mPGES-1; mPGES-1, cell-free, 10 μM): 90 ± 1% | IC50 (mPGES-1; mPGES-1, cell-free, read-out: CFA(1) IC50): 1800 nM | Inhibition of mPGES-1 (mPGES-1; result in words): directly inhibited mPGES-1 | % inhibition at 10 μM (COX-1 [10]; 10 μM, vs vehicle (0.1% DMSO)): 26 ± 2% | IC50 (COX-1 [10]; added 15 min prior induction, read-out: CFA(1) IC50): > 10000 nM

CC(c1cc2ccccc2s1)N(O)C(N)=O (stereo not shown) [Zileuton, reference compound]
Reference control, % inhibition at indic. conc. (5-LO [8]; 3 μM): Zileuton (3 μM), 80 ± 4%

COc1ccc2c(c1)c(CC(=O)O)c(C)n2C(=O)c1ccc(Cl)cc1 [Indomethacin, reference compound]
Reference control, % inhibition at indic. conc. (COX-1 [4]; COX-1, cell-free, 20 μM): Indomethacin (20 μM), 81 ± 8%

O=C(NCCc1ccc(O)cc1)C1=Cc2cc(O)c(O)cc2[C@H](c2ccc(O)c(O)c2)[C@H]1C(=O)NCCc1ccc(O)cc1 [cannabisin B]
Antioxidant activity against DPPH radicals [1]: demonstrated antioxidant activity against DPPH radicals | Inhibition of human LDL oxidation [2]: prominent inhibition of human LDL oxidation | Antiproliferative effects in HepG2 cells [11]: produced antiproliferative effects
